In general, AC50 refers to the concentration giving half of the maximal activity seen. Low values mean activity at low concentration, high ones activity only at high concentration.

Consider 13 compounds from ChEMBL document CHEMBL5291721, “A preclinical secondary pharmacology resource illuminates target-adverse drug reaction associations of marketed drugs” (Nat Commun, 2023).

In test [1] the target is Neuronal acetylcholine receptor subunit alpha-4 (Homo sapiens, UniProt P43681).
The next test has as its target T1, Adenosine receptor A3 (Homo sapiens, UniProt P0DMS8).
T1 sequence (P0DMS8 whole entry): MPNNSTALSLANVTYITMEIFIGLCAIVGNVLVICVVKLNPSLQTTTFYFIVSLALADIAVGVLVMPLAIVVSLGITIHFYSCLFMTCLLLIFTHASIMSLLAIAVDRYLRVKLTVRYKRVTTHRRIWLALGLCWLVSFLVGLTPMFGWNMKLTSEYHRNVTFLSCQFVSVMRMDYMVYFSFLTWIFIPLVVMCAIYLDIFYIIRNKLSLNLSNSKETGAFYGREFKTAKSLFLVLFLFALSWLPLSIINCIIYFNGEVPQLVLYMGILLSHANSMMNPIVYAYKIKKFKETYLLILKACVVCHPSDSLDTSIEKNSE

In test [2] the target is T2, Prostaglandin G/H synthase 1 (Rattus norvegicus, UniProt Q63921).
T2 sequence (Q63921 whole entry): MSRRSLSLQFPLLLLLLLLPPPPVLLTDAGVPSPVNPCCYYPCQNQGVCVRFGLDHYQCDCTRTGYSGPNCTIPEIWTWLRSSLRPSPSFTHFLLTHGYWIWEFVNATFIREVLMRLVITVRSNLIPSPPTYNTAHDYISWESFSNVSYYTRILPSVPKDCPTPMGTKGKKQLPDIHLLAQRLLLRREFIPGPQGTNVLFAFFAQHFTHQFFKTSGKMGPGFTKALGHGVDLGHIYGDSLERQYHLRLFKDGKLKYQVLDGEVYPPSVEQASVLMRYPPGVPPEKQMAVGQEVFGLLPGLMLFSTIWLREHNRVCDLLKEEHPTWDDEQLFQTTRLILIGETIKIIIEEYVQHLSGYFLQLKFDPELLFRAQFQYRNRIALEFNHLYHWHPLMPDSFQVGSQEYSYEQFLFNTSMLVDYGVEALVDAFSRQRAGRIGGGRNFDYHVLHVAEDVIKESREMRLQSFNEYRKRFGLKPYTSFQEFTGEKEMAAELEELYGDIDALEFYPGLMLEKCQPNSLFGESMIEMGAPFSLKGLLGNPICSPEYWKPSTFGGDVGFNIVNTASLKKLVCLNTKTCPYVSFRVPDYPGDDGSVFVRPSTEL
The format is functional.

The next test concerns the target T3, B2 bradykinin receptor (Homo sapiens, UniProt P30411).
T3 sequence (P30411 whole entry): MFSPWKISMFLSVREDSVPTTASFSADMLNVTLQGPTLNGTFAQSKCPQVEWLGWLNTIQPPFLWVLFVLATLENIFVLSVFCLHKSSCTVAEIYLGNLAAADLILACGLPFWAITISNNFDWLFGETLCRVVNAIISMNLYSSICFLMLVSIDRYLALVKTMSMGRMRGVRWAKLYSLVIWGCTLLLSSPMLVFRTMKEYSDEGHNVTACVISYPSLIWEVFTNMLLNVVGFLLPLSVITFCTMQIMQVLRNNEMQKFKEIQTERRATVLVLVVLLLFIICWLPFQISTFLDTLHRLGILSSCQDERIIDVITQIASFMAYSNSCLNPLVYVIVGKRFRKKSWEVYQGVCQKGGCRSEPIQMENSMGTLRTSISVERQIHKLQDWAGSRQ

Test [3] concerns the target Delta-type opioid receptor (Homo sapiens, UniProt P41143).
In a further test the target is Vasopressin V2 receptor (Homo sapiens, UniProt P30518).
The next test concerns the target Vasopressin V1a receptor (Homo sapiens, UniProt P37288).
Another test deals with T4, Progesterone receptor (Homo sapiens, UniProt P06401).
T4 sequence (P06401 whole entry): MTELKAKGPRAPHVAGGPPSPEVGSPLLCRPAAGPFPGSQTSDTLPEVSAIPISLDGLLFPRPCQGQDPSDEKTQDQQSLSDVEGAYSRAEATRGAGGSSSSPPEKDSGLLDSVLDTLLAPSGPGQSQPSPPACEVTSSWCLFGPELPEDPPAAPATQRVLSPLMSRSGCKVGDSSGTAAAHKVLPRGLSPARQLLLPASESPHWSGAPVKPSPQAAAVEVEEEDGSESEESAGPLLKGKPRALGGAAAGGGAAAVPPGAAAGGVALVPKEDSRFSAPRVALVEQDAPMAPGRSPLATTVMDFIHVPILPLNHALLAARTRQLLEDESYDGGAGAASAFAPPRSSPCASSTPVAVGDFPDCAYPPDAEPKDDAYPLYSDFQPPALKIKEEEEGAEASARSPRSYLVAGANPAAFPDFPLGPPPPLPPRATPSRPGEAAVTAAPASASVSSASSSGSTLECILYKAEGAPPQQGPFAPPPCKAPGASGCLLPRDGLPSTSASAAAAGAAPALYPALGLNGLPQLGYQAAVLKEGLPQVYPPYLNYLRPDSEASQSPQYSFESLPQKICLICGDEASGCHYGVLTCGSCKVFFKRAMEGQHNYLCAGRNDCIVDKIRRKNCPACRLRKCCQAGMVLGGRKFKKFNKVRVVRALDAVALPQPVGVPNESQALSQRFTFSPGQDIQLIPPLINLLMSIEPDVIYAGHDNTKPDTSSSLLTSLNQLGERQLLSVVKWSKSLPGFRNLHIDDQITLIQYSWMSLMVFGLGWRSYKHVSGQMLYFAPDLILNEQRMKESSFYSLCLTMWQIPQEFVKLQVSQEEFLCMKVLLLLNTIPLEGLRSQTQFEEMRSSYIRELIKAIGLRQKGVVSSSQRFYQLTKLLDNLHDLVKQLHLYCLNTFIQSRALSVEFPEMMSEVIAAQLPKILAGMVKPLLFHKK
Format: functional.

The target of test [4] is T5, Muscarinic acetylcholine receptor M2 (Homo sapiens, UniProt P08172).
T5 sequence (P08172 whole entry): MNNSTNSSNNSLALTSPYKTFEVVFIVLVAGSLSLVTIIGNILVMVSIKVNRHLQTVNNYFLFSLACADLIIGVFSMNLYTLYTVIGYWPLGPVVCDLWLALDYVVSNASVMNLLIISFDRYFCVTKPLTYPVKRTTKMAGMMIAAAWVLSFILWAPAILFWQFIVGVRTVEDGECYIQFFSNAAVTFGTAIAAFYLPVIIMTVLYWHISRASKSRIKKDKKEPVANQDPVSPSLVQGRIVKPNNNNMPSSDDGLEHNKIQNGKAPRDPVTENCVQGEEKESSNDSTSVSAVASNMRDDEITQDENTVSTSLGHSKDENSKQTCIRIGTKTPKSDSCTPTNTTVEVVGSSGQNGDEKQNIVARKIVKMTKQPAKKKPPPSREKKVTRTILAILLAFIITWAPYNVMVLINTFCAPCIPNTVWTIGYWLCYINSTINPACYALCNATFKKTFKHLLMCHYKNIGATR
The format is functional, cell-based.
Note: assay procedure not described here.

Chain of Vasopressin V1a receptor (P37288 whole entry): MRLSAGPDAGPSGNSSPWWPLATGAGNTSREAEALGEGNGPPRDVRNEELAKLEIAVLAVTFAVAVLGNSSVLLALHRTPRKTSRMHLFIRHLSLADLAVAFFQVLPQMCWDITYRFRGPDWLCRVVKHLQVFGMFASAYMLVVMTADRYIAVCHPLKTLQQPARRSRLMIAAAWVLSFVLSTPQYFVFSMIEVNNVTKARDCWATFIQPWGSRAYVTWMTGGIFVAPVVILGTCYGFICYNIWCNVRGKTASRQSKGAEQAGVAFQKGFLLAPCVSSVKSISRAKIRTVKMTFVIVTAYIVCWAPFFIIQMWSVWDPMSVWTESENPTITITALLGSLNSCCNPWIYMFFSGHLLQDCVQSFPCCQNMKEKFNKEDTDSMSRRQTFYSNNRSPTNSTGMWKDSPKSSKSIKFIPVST
Chain of Neuronal acetylcholine receptor subunit alpha-4 (P43681 whole entry): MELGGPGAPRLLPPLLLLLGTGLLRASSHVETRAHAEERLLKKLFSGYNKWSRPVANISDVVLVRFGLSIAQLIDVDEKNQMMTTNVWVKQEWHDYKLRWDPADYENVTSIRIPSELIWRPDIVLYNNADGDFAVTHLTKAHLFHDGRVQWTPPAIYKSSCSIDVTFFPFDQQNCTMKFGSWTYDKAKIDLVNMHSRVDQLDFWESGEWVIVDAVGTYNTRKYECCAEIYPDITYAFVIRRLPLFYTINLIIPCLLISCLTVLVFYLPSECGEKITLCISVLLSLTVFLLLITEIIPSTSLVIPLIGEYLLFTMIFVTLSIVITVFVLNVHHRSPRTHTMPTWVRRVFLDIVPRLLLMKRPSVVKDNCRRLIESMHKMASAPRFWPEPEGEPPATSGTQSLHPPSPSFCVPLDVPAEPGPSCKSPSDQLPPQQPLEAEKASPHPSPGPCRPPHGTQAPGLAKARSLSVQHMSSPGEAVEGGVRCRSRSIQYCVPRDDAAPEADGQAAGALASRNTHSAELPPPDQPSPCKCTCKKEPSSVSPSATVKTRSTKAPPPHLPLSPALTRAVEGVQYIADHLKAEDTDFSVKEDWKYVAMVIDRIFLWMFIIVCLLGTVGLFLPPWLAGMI
Chain of Vasopressin V2 receptor (P30518 whole entry): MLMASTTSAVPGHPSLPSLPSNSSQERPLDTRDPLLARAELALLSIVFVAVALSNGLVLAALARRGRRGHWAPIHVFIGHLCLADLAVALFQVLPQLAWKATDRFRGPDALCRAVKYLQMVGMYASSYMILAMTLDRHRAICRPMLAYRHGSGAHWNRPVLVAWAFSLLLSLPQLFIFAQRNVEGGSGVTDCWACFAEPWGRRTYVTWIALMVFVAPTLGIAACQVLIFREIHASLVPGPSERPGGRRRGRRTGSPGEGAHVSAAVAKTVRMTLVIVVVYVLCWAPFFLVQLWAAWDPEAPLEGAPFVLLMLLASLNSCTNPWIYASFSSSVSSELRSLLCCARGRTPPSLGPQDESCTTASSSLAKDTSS
Chain of Delta-type opioid receptor (P41143 whole entry): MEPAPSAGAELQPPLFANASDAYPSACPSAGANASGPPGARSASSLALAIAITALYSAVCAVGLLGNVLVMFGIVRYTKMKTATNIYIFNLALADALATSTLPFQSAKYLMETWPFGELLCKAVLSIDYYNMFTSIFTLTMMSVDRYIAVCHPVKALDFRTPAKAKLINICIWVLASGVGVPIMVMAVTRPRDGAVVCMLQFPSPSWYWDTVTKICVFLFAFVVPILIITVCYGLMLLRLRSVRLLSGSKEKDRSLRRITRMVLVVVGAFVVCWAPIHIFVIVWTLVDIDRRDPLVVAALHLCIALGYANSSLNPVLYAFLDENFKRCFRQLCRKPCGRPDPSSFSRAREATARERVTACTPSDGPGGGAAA

In the case of `CC1(C)O[C@@H]2C[C@H]3[C@@H]4CCC5=CC(=O)C=C[C@]5(C)[C@H]4[C@@H](O)C[C@]3(C)[C@]2(C(=O)CO)O1` [DESONIDE], the AC50 in test [1] is above 10 µM; at Adenosine receptor A3, above 10 µM; in [2], above 10 µM; at B2 bradykinin receptor, above 10 µM; in [3], above 30 µM; on Vasopressin V2 receptor it was above 10 µM. Further, the AC50 at Vasopressin V1a receptor is above 10 µM; at Progesterone receptor, 0.065 µM; in [4], above 10 µM.

With `CC(C(=O)O)c1ccc(N2Cc3ccccc3C2=O)cc1` (configuration not stated) [INDOPROFEN], the AC50 in test [1] was above 30 µM; at Adenosine receptor A3 it was above 30 µM; in test [2], 0.0694 µM; on B2 bradykinin receptor it was above 30 µM; in test [3], above 30 µM; on Vasopressin V2 receptor it was above 30 µM. Besides, the AC50 at Vasopressin V1a receptor was above 30 µM; at Progesterone receptor, 16.8 µM; in test [4], above 30 µM.

As to `O=C(NCCNCC(O)COc1ccc(O)cc1)N1CCOCC1` (configuration not stated) [XAMOTEROL], the AC50 (in test [1]; on Adenosine receptor A3; in test [2]; on B2 bradykinin receptor; in test [3]; on Vasopressin V2 receptor) was above 30 µM in each case. Also, the AC50 (on Vasopressin V1a receptor; on Progesterone receptor; in [4]) was above 30 µM each time.

Consider `COc1ccc(-c2ccc3cc(C(=O)O)ccc3c2)cc1C12CC3CC(CC(C3)C1)C2`, for which the AC50 (in test [1]; on Adenosine receptor A3; in test [2]; on B2 bradykinin receptor; in [3]; on Vasopressin V2 receptor) was above 30 µM in each case. The AC50 (on Vasopressin V1a receptor; on Progesterone receptor; in test [4]) was above 30 µM throughout.

Turning to `O=C(O)C[C@H](O)C[C@H](O)/C=C/c1c(C2CC2)nc2ccccc2c1-c1ccc(F)cc1` [PITAVASTATIN], the AC50 in test [1] is above 30 µM; on Adenosine receptor A3 it was above 30 µM; in test [2], above 30 µM; at B2 bradykinin receptor, above 10 µM; in test [3], above 30 µM; on Vasopressin V2 receptor, above 10 µM. Besides, the AC50 on Vasopressin V1a receptor is above 10 µM; at Progesterone receptor it was above 30 µM; in test [4], above 30 µM.

As to `O=C(O)CCCCCCNC1c2ccccc2CCc2ccccc21` [AMINEPTINE], the AC50 (in [1]; on Adenosine receptor A3; in test [2]; on B2 bradykinin receptor; in test [3]; on Vasopressin V2 receptor) was above 30 µM each time. For the same compound, the concentration at half-maximal activity (AC50) (on Vasopressin V1a receptor; at Progesterone receptor; in test [4]) was above 30 µM throughout.

Take `CN1C(=O)C(O)N=C(c2ccccc2Cl)c2cc(Cl)ccc21` (configuration not stated) [LORMETAZEPAM]: the AC50 in test [1] is above 30 µM; at Adenosine receptor A3, above 30 µM; in [2], above 10 µM; on B2 bradykinin receptor it was above 30 µM; in test [3], above 30 µM; at Vasopressin V2 receptor, above 30 µM. In addition, the AC50 on Vasopressin V1a receptor was above 30 µM; on Progesterone receptor it was above 30 µM; in [4], 17 µM.

In the case of `O=C(O)[C@H](CC(=O)N1C[C@H]2CCCC[C@H]2C1)Cc1ccccc1` [MITIGLINIDE], the AC50 in test [1] is above 10 µM; at Adenosine receptor A3, above 10 µM; in test [2] it was above 10 µM; at B2 bradykinin receptor it was above 10 µM; in test [3] it was above 30 µM; at Vasopressin V2 receptor, above 10 µM. Also, the AC50 (at Vasopressin V1a receptor; on Progesterone receptor; in [4]) was above 10 µM in each case.

Consider `CCOC(=O)[C@H](CCc1ccccc1)N[C@@H](C)C(=O)N1C(=O)N(C)C[C@H]1C(=O)O`, for which the AC50 in [1] is above 30 µM; at Adenosine receptor A3, above 30 µM; in test [2], 12 µM; at B2 bradykinin receptor it was above 30 µM; in [3] it was above 30 µM; at Vasopressin V2 receptor, above 30 µM. The AC50 (on Vasopressin V1a receptor; at Progesterone receptor; in [4]) was above 30 µM throughout.

For `C[C@H](N)[C@H](O)c1cccc(O)c1` [METARAMINOL], the AC50 in test [1] is above 10 µM; on Adenosine receptor A3, above 10 µM; in [2], above 10 µM; at B2 bradykinin receptor, above 10 µM; in test [3], above 30 µM; on Vasopressin V2 receptor, above 10 µM. Further, the AC50 (on Vasopressin V1a receptor; on Progesterone receptor; in [4]) was above 10 µM each time.

As for `CC(CC(c1ccccc1)c1ccccc1)NC(C)(C)C` (configuration not stated) [TERODILINE], the concentration at half-maximal activity (AC50) (in test [1]; on Adenosine receptor A3; in test [2]; at B2 bradykinin receptor; in [3]; at Vasopressin V2 receptor) was above 30 µM each time. The AC50 (at Vasopressin V1a receptor; on Progesterone receptor; in test [4]) was above 30 µM in each case.

As to `C=CCN1CCCC1CNC(=O)c1cc(S(N)(=O)=O)cc(OC)c1OC` (configuration not stated) [VERALIPRIDE], the concentration at half-maximal activity (AC50) (in test [1]; at Adenosine receptor A3; in test [2]; on B2 bradykinin receptor; in test [3]; on Vasopressin V2 receptor) was above 30 µM each time. Moreover, the AC50 (on Vasopressin V1a receptor; on Progesterone receptor; in [4]) was above 30 µM in each case.

Turning to `CC(C)OC(=O)CCC/C=C\C[C@@H]1[C@@H](CC[C@@H](O)CCc2ccccc2)[C@H](O)C[C@@H]1O` [LATANOPROST], the AC50 (in test [1]; at Adenosine receptor A3; in test [2]; at B2 bradykinin receptor; in test [3]; on Vasopressin V2 receptor) was above 30 µM throughout. Further, the AC50 (on Vasopressin V1a receptor; on Progesterone receptor; in [4]) was above 30 µM each time.
